The values that follow come from PMC11048033, “Dual Anti-Inflammatory and Anticancer Activity of Novel 1,5-Diaryl Pyrazole Derivatives: Molecular Modeling, Synthesis, In Vitro Activity, and Dynamics Study” (Biomedicines, 2024).

The target in data set [1] is BSA (bovine albumin serum) (Bos taurus, UniProt P02769). Description: Protein (albumin) denaturation assay. The settings on record: maximum inhibition; compounds tested at 50-200 µg/mL, diclofenac 100 µg/mL. How it is done:
Mizushima and Kobayashi’s technique was employed for the determination of in vitro anti-inflammatory activity by the protein denaturation method for the synthesized compounds. […] Then, a mixture of 500µL of 1% aqueous solution of BSA (bovine albumin serum) and 1.4 mL of phosphate buffer saline (PBS, pH 7.4) was added to 100 µL of varying concentrations of the synthesized compounds 50, 100, and 200 µg/mL. […] The mixtures are then incubated for 15 min at 37 °C and then heated for 10 min at 60 °C. The absorbance was measured at 660nm (SHIMADZU, UV-1800 Spectrophotometer) upon cooling. […] The entire experiment was done in triplicate, and the average was calculated. % inhibition of protein denaturation was calculated by: % inhibition=Absorbance of Control−Absorbance of Sample/Absorbance of Control×100
The anti-inflammatory capacity of the target compound was evaluated using the protein denaturation assay.

For data set [2], the system named is HEPG2 (human liver) cell line. Put plainly: MTT anticancer assay, HepG2. It counts as cell-based. How it is done:
(§1) The in vitro anticancer activity is determined by counting the viable cells that are stained with a vital dye. The MTT technique is an accurate measure of the activity of live cells using mitochondrial dehydrogenases. The target tumor cells A549 (human lung adenocarcinoma) and HEPG2 (human liver) cell lines are procured from the “National Centre for Cell Science” (NCCS, Pune). The sources of reagents like Trypsin, DMEM, Pen strip, and FBS are procured from Himedia. […] The culture medium was prepared, and the MTT assay was performed as per the general procedure described by Mosmann T. et al., [30] and the % viability of the cells was determined.
(§2) The target compounds tested for in vitro COX-2 were further checked for in vitro anti-cancer activity against A549 (lung cancer) and HepG2 (liver cancer) cell lines using MTT growth inhibition assay. The compounds were tested for cytotoxicity against both the cell lines at concentrations of 6.25, 12.5, 25, 50, and 100 µg/mL. […] Using the graph where % cell viability is plotted versus concentration, the IC50 values are determined with the help of the dose–response regression equation.
Background: Tetrazolium assays rely on reduction of a dye to a coloured formazan, in cell work by metabolically active cells.

Data set [3] relates to A549 (human lung adenocarcinoma) cell line. Description: MTT anticancer assay, A549. It counts as cell-based. How it is done:
as §1, §2

In a further data set the target is T1, Human COX-2 (Homo sapiens, UniProt P35354).
T1 construct: purchased Cayman Chemicals 701230
T1 sequence (P35354 18-604): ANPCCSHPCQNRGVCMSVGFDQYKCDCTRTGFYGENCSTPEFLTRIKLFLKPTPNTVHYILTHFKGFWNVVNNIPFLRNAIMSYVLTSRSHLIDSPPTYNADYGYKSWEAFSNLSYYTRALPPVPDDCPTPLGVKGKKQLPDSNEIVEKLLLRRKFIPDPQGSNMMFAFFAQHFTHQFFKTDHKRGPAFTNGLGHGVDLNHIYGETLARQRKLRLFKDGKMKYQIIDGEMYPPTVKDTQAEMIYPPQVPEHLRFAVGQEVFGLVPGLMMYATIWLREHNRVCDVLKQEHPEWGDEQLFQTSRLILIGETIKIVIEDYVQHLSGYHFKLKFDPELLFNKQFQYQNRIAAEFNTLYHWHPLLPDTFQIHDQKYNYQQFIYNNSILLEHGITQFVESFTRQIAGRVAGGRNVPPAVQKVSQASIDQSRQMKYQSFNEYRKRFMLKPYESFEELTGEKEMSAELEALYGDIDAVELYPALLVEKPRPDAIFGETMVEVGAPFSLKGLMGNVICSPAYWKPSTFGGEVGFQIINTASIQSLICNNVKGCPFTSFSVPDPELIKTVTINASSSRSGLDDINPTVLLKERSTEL
Description: In vitro COX-2 enzymatic assay (Cayman COX (human) Inhibitor Screening Assay Kit). The settings on record: human COX-2. It counts as biochemical. How it is done:
The ability of the compounds to inhibit COX -2 (IC50 values, µM) was determined by using a “COX (human) Inhibitor Screening Assay Kit” procured from Cayman Chemicals (catalog number 701230). With a slight modification in the method as defined in the reference, the COX-2 inhibition assay was performed. Using the percent conversion of arachidonic acid (AA) to PGH2, the enzyme activity was calculated. By enzyme immunoassay PGF2α, which is produced from PGH2 by reduction with stannous chloride, is calculated. The test compounds’ stock solutions are prepared by dissolving in a minimum amount of DMSO. Human COX-2 (10 µL) in the presence of 10 µL of heme was suspended in 0.1M Tris-HCl buffer (pH 8.0) which contains 2 mM phenol and 5 mM EDTA. This was added to various concentrations of test compounds and, on incubating the solutions at 37 °C for 5 min, 10 µL of AA solution were added. Later, the COX reaction was stopped by adding 1M HCl (50 µL) after 2 min. The intensity of the yellow color which is produced as the product of the enzymatic reaction is determined spectrophotometrically. The percent inhibition was calculated by comparing the compound treated to different control incubations. […] The determinations are done in triplicate and the IC50 (µM) was determined using the concentration–inhibition response curve.
During the initiation of the inflammatory process, the COX enzyme plays a vital role in the progression of inflammatory response. The inflammatory mediators that arise due to the action of COX lead to the chemoattraction of neutrophils, macrophages, eosinophils, etc. […] This was carried out with the help of a COX (human) inhibitor screening assay kit (Item no. 701230) from Cayman chemicals. […] A test substance concentration was considered to be inhibitive when it inhibited human COX-1 or COX-2 by 50%. The compound’s selectivity was measured by its selectivity index values, derived as IC50 (COX-1)/IC50 (COX-2).

Chain of BSA (bovine albumin serum) (P02769 25-607): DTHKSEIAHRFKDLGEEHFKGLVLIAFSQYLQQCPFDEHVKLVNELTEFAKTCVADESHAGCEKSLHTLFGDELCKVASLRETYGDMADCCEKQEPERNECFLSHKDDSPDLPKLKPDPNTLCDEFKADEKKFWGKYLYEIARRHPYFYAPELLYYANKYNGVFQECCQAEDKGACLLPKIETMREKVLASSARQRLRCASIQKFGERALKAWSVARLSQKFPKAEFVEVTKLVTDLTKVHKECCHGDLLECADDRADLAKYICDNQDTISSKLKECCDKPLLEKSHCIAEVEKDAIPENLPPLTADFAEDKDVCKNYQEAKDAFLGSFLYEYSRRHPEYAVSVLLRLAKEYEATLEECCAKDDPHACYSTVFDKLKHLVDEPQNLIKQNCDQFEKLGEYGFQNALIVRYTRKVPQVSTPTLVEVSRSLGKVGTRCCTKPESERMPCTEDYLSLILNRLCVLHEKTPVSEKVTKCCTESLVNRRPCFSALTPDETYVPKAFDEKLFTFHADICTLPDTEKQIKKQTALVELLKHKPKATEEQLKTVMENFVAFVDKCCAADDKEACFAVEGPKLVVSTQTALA

In the case of `COc1ccc(-c2cc(C(=O)NN=Cc3cccc(Oc4ccccc4)c3)nn2-c2ccc(S(N)(=O)=O)cc2)cc1` [Compound T1, 4-(5-(4-methoxyphenyl)-3-(2-(3-phenoxybenzylidene) hydrazine-1-carbonyl)-1H-pyrazol-1-yl) benzenesulfonamide], the “% inhibition of albumin denaturation” value in data set [1] is “less than 50%”.
As for `COc1ccc(-c2cc(C(=O)NN=Cc3ccc(Oc4ccccc4)cc3)nn2-c2ccc(S(N)(=O)=O)cc2)cc1` [Compound T2, 4-(5-(4-methoxyphenyl)-3-(2-(4-phenoxybenzylidene) hydrazine-1-carbonyl)-1H-pyrazol-1-yl) benzenesulfonamide], the “% cell viability” value in data set [2] (HepG2, 6.25 µg/ml) was found to be 78.42%; in data set [2] (HepG2, 12.5 µg/ml), 77.90%; in data set [2] (HepG2, 25 µg/ml), 71.82%; in data set [2] (HepG2, 50 µg/ml), 67.10%; in data set [2] (HepG2, 100 µg/ml), 64.39%; in data set [3] (A549, 6.25 µg/ml) it was 95.63%. The “% cell viability” value was 81.83% in data set [3] (A549, 12.5 µg/ml); 54.02% in data set [3] (A549, 25 µg/ml); 33.98% in data set [3] (A549, 50 µg/ml); 18.25% in data set [3] (A549, 100 µg/ml). Besides, in data set [2] (MTT, HepG2), the “IC50 against HepG2” value is above 100 µM. Moreover, in data set [3] (A549), the “anti-cancer activity against A549 cell lines (in words)” value is “active”. Also, in data set [3] (A549 cell lines), the “concentration at which compound was effective (from % inhibitory values)” value worked out at 25 µg/mL. In data set [3] (MTT, A549), the “IC50 against A549” value is reported as 31.49 µM. Further, in data set [1], the “% inhibition of albumin denaturation” value turned out to be 81.77%. Further, the IC50 on Human COX-2 was determined as 12 µM.
For `NS(=O)(=O)c1ccc(-n2nc(C(=O)NN=Cc3cccc(Oc4ccccc4)c3)cc2-c2ccc(Br)cc2)cc1` [Compound T4, 4-(5-(4-bromophenyl)-3-(2-(3-phenoxybenzylidene) hydrazine-1-carbonyl)-1H-pyrazol-1-yl) benzenesulfonamide], the “% inhibition of albumin denaturation” value in data set [1] was “less than 50%”.
For the molecule `Cc1cc(C=NNC(=O)c2cc(-c3ccc(Cl)cc3)n(-c3ccc(S(N)(=O)=O)cc3)n2)cc(C)c1OCc1ccccc1` [Compound T6, 4-(3-(2-(4-(benzyloxy)-3,5-dimethylbenzylidene) hydrazine-1-carbonyl)-5-(4-chlorophenyl)-1H-pyrazol-1-yl)benzenesulfonamide], the “anti-cancer activity against HepG2 cell line (in words)” value in data set [2] (HepG2) was “active”. For the same molecule, the viability at 6.25 µg/mL in data set [2] (Homo sapiens, HepG2, 6.25 µg/ml) worked out at 24.1%; in data set [3] (Homo sapiens, A549, 6.25 µg/ml), 97.7%. Besides, the viability at 12.5 µg/mL in data set [2] (Homo sapiens, HepG2, 12.5 µg/ml) amounted to 11%; in data set [3] (Homo sapiens, A549, 12.5 µg/ml) it was 87%. Also, the viability at 25 µg/mL in data set [2] (Homo sapiens, HepG2, 25 µg/ml) was 2.99%; in data set [3] (Homo sapiens, A549, 25 µg/ml) it was 78.8%. Besides, the viability at 50 µg/mL in data set [2] (Homo sapiens, HepG2, 50 µg/ml) came out at 2.87%; in data set [3] (Homo sapiens, A549, 50 µg/ml) it was 74.6%. The viability at 100 µg/mL in data set [2] (Homo sapiens, HepG2, 100 µg/ml) worked out at 2.62%; in data set [3] (Homo sapiens, A549, 100 µg/ml), 63.4%. For the same molecule, the IC50 was below 6.25 µg/mL in data set [2] (Homo sapiens, MTT, HepG2, read-out: IC50 against HepG2); above 100 µg/mL in data set [3] (Homo sapiens, MTT, A549, read-out: IC50 against A549); 2.54 µM at Human COX-2. Also, in data set [1], the “% inhibition of albumin denaturation” value was found to be 61.05%.
Take `NS(=O)(=O)c1ccc(-n2nc(C(=O)NN=Cc3ccc(Oc4ccccc4)cc3)cc2-c2ccc(Br)cc2)cc1` [Compound T7, 4-(5-(4-bromophenyl)-3-(2-(4-phenoxybenzylidene) hydrazine-1-carbonyl)-1H-pyrazol-1-yl) benzenesulfonamide]: in data set [1], the “% inhibition of albumin denaturation” value is given as “less than 50%”.
Take `NS(=O)(=O)c1ccc(-n2nc(C(=O)NN=Cc3ccc(Oc4ccccc4)cc3)cc2-c2ccc(Cl)cc2)cc1` [Compound T8, 4-(5-(4-chlorophenyl)-3-(2-(4-phenoxybenzylidene) hydrazine-1-carbonyl)-1H-pyrazol-1-yl) benzenesulfonamide]: in data set [1], the “% inhibition of albumin denaturation” value is reported as “less than 50%”.
Turning to `NS(=O)(=O)c1ccc(-n2nc(C(=O)NN=Cc3ccc(Cl)cc3O)cc2-c2ccc(Br)cc2)cc1` [Compound T9, 4-(5-(4-bromophenyl)-3-(2-(4-chloro-2-hydroxybenzylidene) hydrazine-1-carbonyl)-1H-pyrazol-1-yl) benzenesulfonamide], the “% cell viability” value in data set [2] (HepG2, 6.25 µg/ml) was 85.46%; in data set [2] (HepG2, 12.5 µg/ml) it was 84.90%; in data set [2] (HepG2, 25 µg/ml) it was 79.30%; in data set [2] (HepG2, 50 µg/ml), 67.24%; in data set [2] (HepG2, 100 µg/ml) it was 54.42%; in data set [3] (A549, 6.25 µg/ml), 91.72%. In addition, the “% cell viability” value was determined as 84.82% in data set [3] (A549, 12.5 µg/ml); 76.64% in data set [3] (A549, 25 µg/ml); 66.94% in data set [3] (A549, 50 µg/ml); 54.57% in data set [3] (A549, 100 µg/ml). The “IC50 against HepG2” value in data set [2] (MTT, HepG2) is recorded as above 100 µM. The “IC50 against A549” value in data set [3] (MTT, A549) is on record as above 100 µM. The “% inhibition of albumin denaturation” value in data set [1] was 67.77%. The same molecule gave an IC50 on Human COX-2 of 3.5 µM.
Turning to `NS(=O)(=O)c1ccc(-n2nc(C(=O)NN=Cc3ccc(Cl)cc3O)cc2-c2ccccc2)cc1` [Compound T10, 4-(3-(2-(4-chloro-2-hydroxybenzylidene) hydrazine-1-carbonyl)-5-phenyl-1H pyrazol-1-yl) benzenesulfonamide], in data set [1], the “% inhibition of albumin denaturation” value is “less than 50%”.

What is called IC50 is the midpoint of a concentration-inhibition curve. The viability is the share of living cells, or the viability signal relative to a control. Lower therefore signals a greater loss of cells.
